Test results as given in publication PMC2606922 (Molecular pharmacology, 2008).

Columns and labels:
[1] = target: adult mouse receptors with two δ-subunits (lacking the ε-subunit) (Mus musculus, UniProt P02716+P04756); assay: outside-out patch clamp, relative peak current; assay type: biochemical; settings: 300 μM ACh, -50 mV, 22-25°C, pH 7.3
[2] = target: adult mouse muscle nAChR, (α1)2β1εδ (Mus musculus, UniProt P02716+P04756+P20782); assay: outside-out patch clamp, relative peak current; assay type: biochemical; settings: 300 μM ACh, -50 mV, 22-25°C, pH 7.3
adult mouse muscle nAChR, (α1)2β1εδ, sequence (P04756 21-457): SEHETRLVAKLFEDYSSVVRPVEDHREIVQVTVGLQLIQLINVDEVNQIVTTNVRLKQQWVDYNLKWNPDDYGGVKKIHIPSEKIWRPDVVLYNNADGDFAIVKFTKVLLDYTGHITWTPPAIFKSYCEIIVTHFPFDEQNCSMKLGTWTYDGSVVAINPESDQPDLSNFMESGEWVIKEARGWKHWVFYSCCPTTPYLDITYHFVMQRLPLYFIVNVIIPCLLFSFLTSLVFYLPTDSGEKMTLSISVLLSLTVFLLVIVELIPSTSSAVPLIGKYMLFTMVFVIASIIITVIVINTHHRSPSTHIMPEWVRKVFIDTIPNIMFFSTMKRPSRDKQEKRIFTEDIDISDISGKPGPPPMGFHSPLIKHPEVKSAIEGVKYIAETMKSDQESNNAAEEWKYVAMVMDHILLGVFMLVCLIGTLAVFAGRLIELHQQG
adult mouse muscle nAChR, (α1)2β1εδ, sequence (P20782 21-493): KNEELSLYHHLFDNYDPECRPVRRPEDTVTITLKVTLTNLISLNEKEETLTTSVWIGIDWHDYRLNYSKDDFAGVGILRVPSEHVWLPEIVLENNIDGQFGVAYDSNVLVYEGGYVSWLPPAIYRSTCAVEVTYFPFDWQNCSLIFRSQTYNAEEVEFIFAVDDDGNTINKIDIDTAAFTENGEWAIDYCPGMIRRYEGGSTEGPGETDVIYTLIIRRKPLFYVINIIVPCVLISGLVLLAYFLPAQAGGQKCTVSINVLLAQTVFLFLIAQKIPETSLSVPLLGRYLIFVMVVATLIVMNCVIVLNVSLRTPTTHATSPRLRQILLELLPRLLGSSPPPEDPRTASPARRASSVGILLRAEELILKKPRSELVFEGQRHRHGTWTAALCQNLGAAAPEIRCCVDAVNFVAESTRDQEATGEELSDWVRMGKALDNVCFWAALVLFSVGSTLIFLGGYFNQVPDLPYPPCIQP
adult mouse muscle nAChR, (α1)2β1εδ, sequence (P02716 25-520): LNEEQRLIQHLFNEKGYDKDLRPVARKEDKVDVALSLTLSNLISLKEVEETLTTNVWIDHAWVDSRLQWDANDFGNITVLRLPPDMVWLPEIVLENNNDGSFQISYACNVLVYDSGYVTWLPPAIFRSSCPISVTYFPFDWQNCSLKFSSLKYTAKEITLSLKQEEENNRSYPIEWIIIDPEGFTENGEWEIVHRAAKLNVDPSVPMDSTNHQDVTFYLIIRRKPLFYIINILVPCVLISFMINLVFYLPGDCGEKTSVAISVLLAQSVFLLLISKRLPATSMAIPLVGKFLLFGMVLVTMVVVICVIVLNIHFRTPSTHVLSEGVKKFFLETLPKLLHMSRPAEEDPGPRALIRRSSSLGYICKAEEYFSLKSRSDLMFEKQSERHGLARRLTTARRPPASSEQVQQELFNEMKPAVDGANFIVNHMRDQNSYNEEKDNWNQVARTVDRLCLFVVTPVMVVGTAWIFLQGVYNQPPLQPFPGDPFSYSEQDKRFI
adult mouse muscle nAChR, (α1)2β1εδ, sequence (P09690 24-501 partner): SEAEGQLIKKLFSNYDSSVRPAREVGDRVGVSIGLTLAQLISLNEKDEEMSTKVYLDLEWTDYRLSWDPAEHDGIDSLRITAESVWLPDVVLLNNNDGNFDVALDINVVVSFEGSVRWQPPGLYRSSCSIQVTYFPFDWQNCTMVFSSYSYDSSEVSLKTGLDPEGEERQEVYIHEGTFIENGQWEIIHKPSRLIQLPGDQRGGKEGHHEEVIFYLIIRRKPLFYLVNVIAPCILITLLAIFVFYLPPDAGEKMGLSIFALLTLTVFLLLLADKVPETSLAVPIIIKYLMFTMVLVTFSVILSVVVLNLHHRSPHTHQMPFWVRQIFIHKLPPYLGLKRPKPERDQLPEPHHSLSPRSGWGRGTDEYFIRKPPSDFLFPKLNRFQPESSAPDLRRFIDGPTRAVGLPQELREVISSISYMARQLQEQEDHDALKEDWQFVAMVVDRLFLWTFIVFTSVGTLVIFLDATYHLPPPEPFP

adult mouse receptors with two δ-subunits (lacking the ε-subunit), sequence (P04756 21-457): as the sequence (P04756 21-457) above
adult mouse receptors with two δ-subunits (lacking the ε-subunit), sequence (P02716 25-520): as the sequence (P02716 25-520) above
adult mouse receptors with two δ-subunits (lacking the ε-subunit), sequence (P09690 24-501 partner): as the sequence (P09690 24-501 partner) above

C=CC[N+]1([C@H]2C[C@H]3[C@@H]4CC[C@H]5C[C@H](O)[C@@H](N6CCOCC6)C[C@]5(C)[C@H]4CC[C@]3(C)[C@H]2OC(C)=O)CCCC1 [rocuronium]
current relative to control at 40 nM [1]: 0.16 ± 0.01
current relative to control at 40 nM [2]: 0.32 ± 0.05
